# Experimental data from ChEMBL document CHEMBL3046417 (2009).
# The source made the active and inactive calls. The calls are words filed in the database; no cut-off is given here.
# Assays:
# [1] = system: Cnaphalocrocis medinalis; assay: Antifeedant activity against fourt-instar of Cnaphalocrocis medinalis in IR20 rice plant leaf assessed as leaf scraped at 1.5 ppm after 24 hr; format: functional
# [2] = system: Cnaphalocrocis medinalis; assay: Antifeedant activity against fourth-instar of Cnaphalocrocis medinalis in IR20 rice plant leaf at 1.5 to 3 ppm after 4 days; format: functional, organism-based
# [3] = system: Cnaphalocrocis medinalis; assay: Antifeedant activity against fourth-instar of Cnaphalocrocis medinalis in IR20 rice plant leaf assessed as leaf scraped at 12 ppm after 24 hr; format: functional
# [4] = system: Cnaphalocrocis medinalis; assay: Antifeedant activity against fourth-instar of Cnaphalocrocis medinalis in IR20 rice plant leaf at 6 ppm after 4 days; format: functional
# [5] = system: Cnaphalocrocis medinalis; assay: Reduction of larval normal weight gain time in third-instar of Cnaphalocrocis medinalis in IR20 rice plant leaf at 12 ppm after 25 days (reference value: 23.5 +/- 0.56 days); format: functional
# [6] = system: Cnaphalocrocis medinalis; assay: Antifeedant activity against fourth-instar of Cnaphalocrocis medinalis in IR20 rice plant leaf at 12 ppm after 4 days; format: functional, organism-based
# [7] = system: Cnaphalocrocis medinalis; assay: Reduction of larval weight gain in third-instar of Cnaphalocrocis medinalis in IR20 rice plant leaf at 6 ppm after 25 days; format: functional
# [8] = system: Cnaphalocrocis medinalis; assay: Reduction of fecundity in third-instar of Cnaphalocrocis medinalis in IR20 rice plant leaf at 3 ppm relative to control; format: functional; set-up: scale not given: the % may be the effect or the level left
# [9] = system: Cnaphalocrocis medinalis; assay: Reduction of egg production in third-instar of Cnaphalocrocis medinalis in IR20 rice plant leaf assessed as oviposition deterrence index at 12 ppm relative to control; format: functional; set-up: scale not given: the % may be the effect or the level left
# [10] = system: Cnaphalocrocis medinalis; assay: Reduction of fecundity in third-instar of Cnaphalocrocis medinalis in IR20 rice plant leaf at 25 ppm relative to control; format: functional; set-up: scale not given: the % may be the effect or the level left
# [11] = system: Cnaphalocrocis medinalis; assay: Reduction of fecundity in third-instar of Cnaphalocrocis medinalis in IR20 rice plant leaf at 6 ppm relative to control; format: functional; set-up: scale not given: the % may be the effect or the level left
# [12] = system: Cnaphalocrocis medinalis; assay: Reduction of egg fertility in third-instar of Cnaphalocrocis medinalis in IR20 rice plant leaf assessed as oviposition deterrence index at 6 to 12 ppm; format: functional, organism-based
# [13] = system: Cnaphalocrocis medinalis; assay: Reduction of larval normal weight gain time in third-instar of Cnaphalocrocis medinalis in IR20 rice plant leaf at 6 ppm after 25 days (reference value: 23.5 +/- 0.56 days); format: functional
# [14] = system: Cnaphalocrocis medinalis; assay: Reduction of larval weight gain in third-instar of Cnaphalocrocis medinalis in IR20 rice plant leaf at 3 ppm after 48 hr (reference value: 23.7 mg); format: functional
# [15] = system: Cnaphalocrocis medinalis; assay: Reduction of egg production in third-instar of Cnaphalocrocis medinalis in IR20 rice plant leaf assessed as oviposition deterrence index at 6 ppm relative to control; format: functional; set-up: scale not given: the % may be the effect or the level left
# [16] = system: Cnaphalocrocis medinalis; assay: Reduction of larval normal weight gain time in third-instar of Cnaphalocrocis medinalis in IR20 rice plant leaf at 3 ppm after 25 days (reference value: 23.5 +/- 0.56 days); format: functional
# [17] = system: Cnaphalocrocis medinalis; assay: Reduction of larval weight gain in third-instar of Cnaphalocrocis medinalis in IR20 rice plant leaf at 6 ppm after 48 hr (reference value: 23.7 mg); format: functional
# [18] = system: Cnaphalocrocis medinalis; assay: Antifeedant activity against fourth-instar of Cnaphalocrocis medinalis in IR20 rice plant leaf assessed as leaf scraped at 12 ppm after 48 hr; format: functional, organism-based
# [19] = system: Cnaphalocrocis medinalis; assay: Reduction of larval weight gain in third-instar of Cnaphalocrocis medinalis in IR20 rice plant leaf at 12 ppm after 48 hr (reference value: 23.7 mg); format: functional
smiles,measurement,setting,value
CC(C)=CC(=O)C[C@@H](C)[C@H]1CC[C@@]2(C)[C@@H]3CC[C@@H]4[C@@]5(CC(=O)OC[C@@]4(C)C(=O)O)C[C@@]35CC[C@]12C [BEDDOMEILACTONE],Activity,[1],8.97 cm2
same,Activity,[2],Active
same,Activity,[3],0.87 cm2
same,Activity,[4],80%
same,Time,[5],48.3 days
same,Activity,[6],Active
same,Activity,[7],12.1 mg
same,Activity,[8],39%
same,Activity,[9],83%
same,Activity,[10],3%
same,Activity,[11],19%
same,Activity,[12],Active
same,Time,[13],39.2 days
same,Activity,[14],13.6 mg
same,Activity,[15],60%
same,Time,[16],37.2 days
same,Activity,[17],10.2 mg
same,Activity,[18],Active
same,Activity,[19],7.2 mg
